Reference: patent US10329518B2, “Anionic surfactants” (Novus International Inc., priority 2015, dated 2019)
Read-outs that look alike come from different tables or passages of the source.

Columns and labels:
[1] = Surface tension by Wilhelmy plate tensiometer; CMC from break point of surface tension vs. log C; format: physicochemical; conditions: room temperature
Method: The solubility of the surfactants in water was assessed visually at room temperature. The mixture at each concentration was examined after at least 10 min of mild shaking and ultrasonic bath agitation to see if the surfactant completely dissolved. […] Surface tension was determined with a Wilhelmy Plate tensiometer (Cahn DCA-322) at room temperature. Glass slides manufactured by Corning with a width of 22 mm and thickness of 0.1 mm were used as probes. The motor speed was set to be 100 μm/sec. The CMC was determined from the break point of Υvs. log C diagram with a custom Microsoft Visual Basic program.

[2] = Hardness (calcium chloride) tolerance; format: physicochemical; conditions: for CaCl2 Tolerance / Hardness Tolerance: CaCl2 added, cooled to 4° C., heated to 25° C., visual
Method: The Krafft temperature of the surfactant with the concentration at the room temperature CMC was determined by cooling the solution to 4° C. and then raising the temperature by 1° C. steps and visually inspecting its phase behavior after the solution reached thermal equilibrium. For hardness tolerance, a known amount of calcium chloride was added to the solution prior to cooling to 4° C.

[3] = Krafft temperature determination; format: physicochemical; conditions: within 48 hours
Method: […] the solution to 4° C. and then raising the temperature by 1° C. steps and visually inspecting its phase behavior after the solution reached thermal equilibrium. For hardness tolerance, a known amount of calcium chloride was added to the solution prior to cooling to 4° C.

[4] = Ross-Miles foam test (ASTM D1173-07); format: physicochemical; conditions: 1 wt % solution
Method: The Ross-Miles foam test was performed according to the test protocol described in ASTM D1173-07. […] 50 mL of each surfactant solution (1 wt %) was carefully poured into the 1 meter glass column, without creating any foam, which is called the receiver. A 200 mL pipette with the surfactant solution is placed 90 cm above the receiver and the solution is allowed to drop into the foam receiver. The height of the foam produced is measured immediately and after 5 minutes.

[5] = Draves wetting test (ASTM D2281-68); format: physicochemical
Method: The Draves wetting test was performed according to ASTM […]-68. 500 mL of surfactant solution was poured into a 500 mL graduated cylinder (38 cm in height), and a 5.0 g standard skein hooked with a lead anchor was dropped into the solution. The skein floats in the solution initially and sinks when wetted, and the time taken was recorded as the time of wetting.

[6] = Water solubility assessed visually at room temperature; format: physicochemical; conditions: in water, visual assessment
Method: Dowex MAC-3 resin (proton form) was swollen and neutralized with excess NaOH/water solution, and then assembled into a column. After the resin was balanced with 2 column volumes of 30 vol % water in ethanol, 1 column volume of a 0.1 g/mL acid in 30 vol % water in ethanol solution was loaded and incubated in the column for 10 min. Subsequently, the resin was rinsed with 2 column volumes of 30 vol % water in ethanol, and the eluent was collected. The pH of the 1 wt % solutions/suspensions of the solids increased from 4 to 8 after passing through the column. The solvent was then evaporated under vacuum at mild heat (40° C.) to provide the sodium carboxylate salts. The sodium salts were fully soluble in water (deionized with 18MΩ resistivity), while the starting carboxylic acids were insoluble. The solubility of the surfactants in water was assessed visually at room temperature. The mixture at each concentration was examined after at least 10 min of mild shaking and ultrasonic bath agitation to see if the surfactant completely dissolved. […] Surface tension was determined with a Wilhelmy Plate tensiometer (Cahn DCA-322) at room temperature. Glass slides manufactured by Corning with a width of 22 mm and thickness of 0.1 mm were used as probes. The motor speed was set to be 100 μm/sec. The CMC was determined from the break point of Υvs. log C diagram with a custom Microsoft Visual Basic program.

[7] = literature value (footnotes a, b); cited from earlier work
[8] = cited from earlier work; for CMC/C20: literature value (footnotes b, d)
[9] = literature value (footnote c); cited from earlier work
[10] = literature value (footnotes a, c); cited from earlier work

Molecule	CMC [1]	CMC/C20 [1]	pC20 [1]	ΥCMC (surface tension at CMC) [1]	CaCl2 Tolerance [2]	Hardness Tolerance [2]	Precipitation of 1 wt % solution in 4° C. water bath [3]	Draves wetting time of 0.1 wt % solution [5]	Water Solubility [6]	CMC/C20 [8]	further results
CCCCCCCCCCCC(=O)OC(CCSC)C(=O)[O-].[Na+] (centres unmarked) [C12ESCOONa]	1.0 mM	5.55	3.84	35 mN/m	100 µM	10 ppm as CaCO3	did not show precipitation	11 s	282 mM		Calcium tolerance relative to the linear carboxylate (NaL) ([2]; versus NaL): approximately 2.5 orders of magnitude; Calcium tolerance relative to the linear sulfate SDS ([2]; versus SDS): about half an order of magnitude better; Foam dissipation ([4]; foam height immediately and after 5 minutes): dissipates much faster; Foam height ([4]; versus SDS, SDBS, AES): comparable to the reference anionic surfactants; Draves wetting performance compared with references ([5]; 0.1 wt % solutions): outperformed NaL in wetting time with a comparable performance to SDS
CCCCCCCCCCCC(=O)OC(CC[S+](C)[O-])C(=O)[O-].[Na+] (centres unmarked) [C12ESOCOONa]	1.7 mM	3.15	3.27	40 mN/m	5000 µM	500 ppm as CaCO3	did not show precipitation		>1000^ mM		Hardness tolerance (of CaCl2) ([2]; text of b163): 5000 µM; Hardness tolerance relative to the unoxidized form ([2]; versus C12ESCOONa): 50 times
CCCCCCCCCCCCCCCC(=O)OC(CC[S+](C)[O-])C(=O)[O-].[Na+] (centres unmarked) [C16ESOCOONa]	0.54 mM	4.56	4.07	42 mN/m	100 µM	10 ppm as CaCO3	did not show precipitation		117 mM		
CCCCCCCCCCCC(=O)[O-].[Na+] [NaL, sodium laurate, reference compound]	19.1 mM		3.32	30 mN/m	0.5 µM	0.05 ppm as CaCO3		52 s		38.5^b	Krafft Point [7]: 13^a ° C.; solubility ([6]; thermodynamic from solid): 90 mM
CCCCCCCCCCCCOS(=O)(=O)[O-].[Na+] [SDS, sodium dodecyl sulfate]								11 s		2.6^d	CaCl2 Tolerance [9]: 40^c μM; Hardness Tolerance [9]: 4^c ppm as CaCO3; CMC ([8]; literature value (footnote d)): 12.4^d mM; pC20 ([8]; literature value (footnote d)): 2.36^d; ΥCMC (surface tension at CMC) ([8]; literature value (footnote d)): 40^d mN/m
sodium dodecylbenzene sulfonate [SDBS, reference compound]	3.1 mM	5.30	3.24	34 mN/m							Water Solubility [10]: 575^a mM
